Results from patent publication US8110585B2, “Bicyclic compound and pharmaceutical use thereof” (Takeda Pharmaceutical Company Limited, priority 2007, dated 2012).

Experiments:
[1] = biological target: T1, human melatonin 1 receptors (human MT1 receptors) (Homo sapiens, UniProt P48039); experiment: Melatonin receptor binding inhibitory test, 2-[125I] Iodomelatonin, MT1; conditions: membrane fraction of CHO-hMelR7 cells, 25° C. for 2.5 hr, read-out: binding inhibitory activity as IC50 value for MT1
T1 construct: expressed in transfected cells; membrane fraction
T1 sequence (P48039 whole entry): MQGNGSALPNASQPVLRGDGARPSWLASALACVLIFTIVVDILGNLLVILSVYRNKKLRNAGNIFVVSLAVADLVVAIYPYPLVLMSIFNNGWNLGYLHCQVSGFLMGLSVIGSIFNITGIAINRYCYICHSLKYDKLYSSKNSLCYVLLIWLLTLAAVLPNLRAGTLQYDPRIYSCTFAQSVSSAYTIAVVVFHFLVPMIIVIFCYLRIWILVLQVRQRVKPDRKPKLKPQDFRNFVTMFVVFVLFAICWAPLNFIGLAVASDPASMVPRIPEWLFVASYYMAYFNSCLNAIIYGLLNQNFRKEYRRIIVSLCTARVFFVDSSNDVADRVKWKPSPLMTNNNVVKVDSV

[2] = biological target: T2, human melatonin 2 receptors (human MT2 receptors) (Homo sapiens, UniProt P49286); experiment: Melatonin receptor binding inhibitory test, 2-[125I] Iodomelatonin, MT2; conditions: membrane fraction of CHO-hMT2 cells, 25° C. for 2.5 hr, read-out: binding inhibitory activity as IC50 value for MT2
T2 construct: expressed in transfected cells; membrane fraction
T2 sequence (P49286 1-362): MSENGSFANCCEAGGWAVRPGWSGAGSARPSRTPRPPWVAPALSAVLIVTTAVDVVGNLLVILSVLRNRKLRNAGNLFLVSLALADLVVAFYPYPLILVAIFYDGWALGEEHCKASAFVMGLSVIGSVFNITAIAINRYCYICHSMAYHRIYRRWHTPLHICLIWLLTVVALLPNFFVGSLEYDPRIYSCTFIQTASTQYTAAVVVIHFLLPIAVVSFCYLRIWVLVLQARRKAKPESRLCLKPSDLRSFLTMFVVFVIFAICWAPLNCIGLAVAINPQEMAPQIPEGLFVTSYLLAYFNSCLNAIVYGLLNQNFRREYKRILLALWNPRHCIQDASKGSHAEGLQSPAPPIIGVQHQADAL

For `CCC(=O)NCC1CC1c1cccc2nscc12` (stereo not drawn) [Example 63, N-{[2-(2,1-benzisothiazol-4-yl)cyclopropyl]methyl}propanamide], the IC50 [1] was no more than 100 nM, the melting point was 84 to 86 °C and the IC50 [2] was no more than 100 nM.
